Assay results taken from patent publication US6779656B2, “Polymerizable preparations based on epoxides that contain silicon” (3M Espe AG, priority 2000, dated 2004).
Like-named read-outs stand apart in the source and are kept apart here.

Experiment: Ames test (ISO/FDIS 7405), mutagenicity test
Format: cell-based
Description: The improved toxicity is manifested, for example, in a lower mutagenicity.

SMILES | Ames test (ISO/FDIS 7405) (mutagenicity) | Ames test (ISO/FDIS 7405)
O=C(OCC1CCC2OC2C1)C1CCC2OC2C1 (stereo not drawn) [3,4-epoxycyclohexylmethyl 3,4-epoxycyclohexanecarboxylate, reference compound] | positive | –
C[Si](C)(CC1CCC2OC2C1)CC1CCC2OC2C1 (stereo not drawn) [dimethylbis[2-(7-oxabicyclo[4.1.0]hept-3-yl)methyl]-silane] | – | negative
C[Si](CCC1CCC2OC2C1)(CCC1CCC2OC2C1)c1ccccc1 (stereo not drawn) [methylbis[2-(7-oxabicyclo[4.1.0]hept-3-yl)ethyl]phenyl-silane] | – | negative
